Earlier results, collected in patent US10874130B2, “Steviol glycoside solutions” (PureCircle USA Inc., priority 2015, dated 2020).

Details: heat and pH

Stability in carbonated beverages	Structure (SMILES)
heat and pH stability	C=C1C[C@@]23CC[C@H]4[C@@](C)(CCC[C@@]4(C)C(=O)O[C@@H]4O[C@H](CO)[C@@H](O)[C@H](O)[C@H]4O)[C@@H]2CC[C@]1(O[C@@H]1O[C@H](CO)[C@@H](O)[C@H](O[C@@H]2O[C@H](CO)[C@@H](O)[C@H](O)[C@H]2O)[C@H]1O[C@@H]1O[C@H](CO)[C@@H](O)[C@H](O)[C@H]1O)C3 [rebaudioside A]
heat and pH stability	C=C1C[C@@]23CC[C@H]4[C@@](C)(CCC[C@@]4(C)C(=O)O[C@@H]4O[C@H](CO)[C@@H](O)[C@H](O)[C@H]4O)[C@@H]2CC[C@]1(O[C@@H]1O[C@H](CO)[C@@H](O)[C@H](O)[C@H]1O[C@@H]1O[C@H](CO)[C@@H](O)[C@H](O)[C@H]1O)C3 [stevioside]
